#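 Assay format: 96-well plates, 48-hour exposure. The concentration for full growth arrest is given as TGI.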
# Key:
# Experiment in all cases: NCI tumour cell line growth inhibition, 48 h
# [1] = test system: SW-620 colon
# [2] = test system: NCI-H460 lung
# [3] = test system: MOLT-4 leukemia
# [4] = test system: SN12C renal
# [5] = test system: SR leukemia
# [6] = test system: MDA-N
# [7] = test system: NCI-H23 lung
# [8] = test system: CAKI-1 renal
# [9] = test system: PC-3 prostate
Compound,TGI [1] [µM],TGI [2] [µM],TGI [3] [µM],TGI [4] [µM],TGI [5] [µM],TGI [6] [µM],TGI [7] [µM],TGI [8] [µM],TGI [9] [µM]
CCC[N+](C)(C)CCCNC(=O)c1c(O)c2ccccc2[nH]c1=O,> 100,> 100,> 100,> 100,> 100,> 100,> 100,> 100,> 100
CC1(C)C2CC3C(C)(C2)C31c1cc(Cl)ccc1N (configuration not stated),28.2,28.9,22.7,27.5,22,24.7,26,29.1,27
O=c1c2cccnc2oc2c(Cl)cc(-c3nn[nH]n3)cc12,> 100,,,> 100,> 100,> 100,> 100,> 100,> 100
CCSC12OC3(CCCCCN3C1=O)C1C(=O)N(c3ccccc3)C(=O)C12 (configuration not stated),> 100,> 100,> 100,> 100,> 100,> 100,> 100,> 100,> 100
Cc1cn(C2CC(O)C(Cn3nncc3Cn3nc(Br)c(=O)[nH]c3=O)O2)c(=O)[nH]c1=O (configuration not stated),> 100,,> 100,> 100,> 100,> 100,> 100,> 100,> 100
COc1cc(C(c2ccccc2)N2C(=O)CC[C@H]2C(=O)O)cc(OC)c1OC (some centres not stated),> 100,> 100,> 100,> 100,> 100,> 100,> 100,> 100,> 100
CCOP(=O)(OCC)/C(=C/n1c(=S)[nH]c2ccccc21)C(=O)OC,> 100,> 31.6,> 100,> 100,> 100,> 100,> 100,> 100,> 100
N#Cc1c(/C=C/c2ccccc2)c2c([nH]c1=S)CCCCC2,> 100,> 100,> 100,> 100,> 100,> 100,> 100,> 100,> 100
Cc1cc(N(CCC#N)CCC#N)ccc1/C(N=Nc1ccc(C(=O)O)cc1)=N\NC(=O)c1ccccc1,,> 100,> 100,> 100,> 100,> 100,> 100,> 100,> 100
COc1ccc(C2N(c3ccc(C)c(N=C=O)c3)C(=O)N3C(c4ccc(OC)cc4)N(c4ccc(C)c(N=C=O)c4)C(=O)N23)cc1 (configuration not stated),> 100,> 100,> 100,> 100,> 100,> 100,> 100,> 100,> 100
COc1ccc(NC(=O)CSC(=O)c2ccccc2)c(SCCSSCCSc2cc(OC)ccc2NC(=O)CSC(=O)c2ccccc2)c1,> 100,> 100,> 100,> 100,> 100,> 100,> 100,> 100,> 100
O=C1C(c2ccccc2)=C(c2ccccc2)C1(Cl)Cl,9.77,20.8,6.97,11.5,4.82,4.51,7.72,6.15,14.3
CCCCCCCCCCCC(=O)N(CCCCCCCCC)CC(O)C(O)C(OC1OC(CO)C(O)C(O)C1O)C(O)CO (configuration not stated),35.1,35.6,40.3,36.1,42.4,38.4,35.3,35.5,39.2
O=C(CCCCCNC(=O)c1ccc(Cl)cc1)NO,> 100,39.6,> 100,24.4,53.7,10.8,51.5,21.1,9
C=C(C)C1(Sc2ccc(OC)cc2)CC1,> 100,> 100,40.3,35.4,37.4,> 100,> 100,> 100,> 100
O=[N+]([O-])c1c(O)c2nonc2c2nn(-c3ccccc3)nc12,> 100,> 100,> 100,> 100,> 100,> 100,> 100,> 100,> 100
NC1(c2cc3ccccc3s2)CCCCCC1,31.1,28.6,32.6,31,36.6,30.4,34,26.8,24
NS(=O)(=O)c1ccc(-c2ccc([As](=O)(O)O)cc2)cc1,> 100,> 100,> 100,> 100,> 100,> 100,> 100,> 100,> 100
COC(=O)NC(Cc1ccccc1)NC(=O)OC(C)(C)C (configuration not stated),> 100,> 100,> 100,> 100,> 100,> 100,> 100,> 100,> 100
O=C(CC(=O)N1N=C(c2ccccc2)C(N=Nc2ccc(S(=O)(=O)CCOS(=O)(=O)O)cc2)C1=O)Nc1ccc(Cl)cc1 (configuration not stated),,> 100,> 100,> 100,> 100,> 100,> 100,> 100,> 100
CCCCCCc1ccc(CCCCCCCC(=O)O)o1,> 100,> 100,36.1,> 100,> 100,> 100,> 100,> 100,> 100
CC1(C)CCCCCC(O)C(O)CCC(C)(C)C1=O (configuration not stated),> 100,> 100,> 100,> 100,> 100,> 100,> 100,> 100,> 100
CCOC(=O)c1nc2ccccc2nc1Nc1ccc(C(=O)OC)s1,> 100,> 100,> 100,> 100,> 100,> 100,> 100,> 100,> 100
